Data as given in patent US20140235520A1, “Perfume Compositions” (Givaudan Nederland Services B.V., priority 2005, published 2014).

Key:
[1] = test system: Escherichia coli ATCC 10536; test: Standardised biofilm detachment assay (96 well microtitre plate, crystal violet OD540) in quarter strength GPC base Formula A; type: cell-based; conditions: for Group (PDV class: active / non-active / antagonist to biofilm detachment): ingredient as 1 of 4 equal-weight ingredients (other 3 Group B), perfume 0.25% w/w in quarter strength GPC base Formula A, 20 min 21° C., flavour ingredients classed in toothpaste base
[2] = test system: Escherichia coli ATCC 10536; test: Biofilm detachment assay in quarter strength modified transparent silica toothpaste base (Formula B); type: cell-based; conditions: positive control, Example 3
Protocol: The procedure described in example 1(a) was repeated but wherein flavour compositions comprising flavour ingredients from the oral care palette to be tested were prepared. The compositions were added to a modified transparent silica toothpaste base (diluted to quarter strength) together with de-ionised water to produce test mixtures with the composition as set out in Formula B below. [table] A percentage detachment value (PDV) for each test mixture was then calculated using the following formula: PDV=100−([OD540 for Test Mixture÷OD540 for Water Control]×100). […] The PDV scores were therefore adjusted to account for base influences on flavour behaviour and Detachment Index (DI) values quoted for each flavour composition.

SMILES | Group (PDV class: active / non-active / antagonist to biofilm detachment) [1] | PDV ([1]; positive control, 2% w/w in deionised water) | PDV [2]
CC(=O)C1=C(C)C2CC3(C1)C(C)CCC3C2(C)C (stereo not drawn) [1-(2,6,6,8-tetramethyltricyclo [5.3.1.0̂{1,5}]undec-8-en-9-yl)ethanone] | A (Group A materials that assist biofilm detachment are defined as those having a PDV (as defined above) of at least 9) | – | –
COc1ccc(CC(C)C=O)cc1 (stereo not drawn) [2-methyl-3-[4-(methyoxy)phenyl]propanal] | C (Group C materials that are antagonistic to biofilm detachment are defined as those having a PDV (as defined above) of less than or equal to 0) | – | –
CCC(=O)OC1CC2CC1C1C=CCC21 (stereo not drawn) [tricyclo[5.2.1.0̂{2,6}]dec-4-en-8-yl propanoate] | B (Group B materials that are non-active to biofilm detachment are defined as those having a PDV (as defined above) of less than 9 and greater than 0) | – | –
CC1(C)CCCC2(C)C1CCC1(C)OCCC12 (stereo not drawn) [3a,6,6,9a-tetramethyldodecahydronaphtho[2,1-{b}]furan] | B (Group B materials that are non-active to biofilm detachment are defined as those having a PDV (as defined above) of less than 9 and greater than 0) | – | –
CCCCCCCCCCCCOS(=O)(=O)[O-].[Na+] [SLS, sodium lauryl sulphate, reference compound] | – | about 80% | about 80%
